The results in this text go back to the Deep4Chem optical property database.

A short description of this data set: solvent given as SMILES.

For the compound `CCC1=C(C)C2=Cc3cc(I)c(I)n3[B-](F)(F)[N+]2=C1C`, the emission maximum is, setting by setting: (in C1CCCCC1) 550.5 nm; (in CC(C)=O) 552.5 nm; (in CCO) 555 nm; (in CCOC(C)=O) 551.5 nm; (in CO) 552 nm; (in OCC(F)(F)F) 548 nm.
Regarding `F[B-]1(F)Oc2ccccc2-c2cc(-n3c4ccc(-c5ccccc5)cc4c4cc(-c5ccccc5)ccc43)cc[n+]21`, the emission maximum reads like this: (in Cc1ccccc1) 471 nm; (in O=P(c1ccccc1)(c1ccccc1)c1ccccc1Oc1ccccc1P(=O)(c1ccccc1)c1ccccc1) 496 nm.
For `C=C(C)C(CN1C(=O)c2cccc3c2c(cc2nc(C)oc23)C1=O)OO` (centres undefined), where the note is “in CCO”, the emission maximum came to 412 nm.
`COc1ccc(-c2nc(-c3ccc(OC)cc3)c(-c3ccc(OC)cc3)[nH]2)cc1` had an emission maximum (in CO) of 389 nm.
Regarding `CC[n+]1ccc(/C=C/c2cc(OC)c(C=O)cc2OC)cc1`, the emission maximum by setting is: (in C1CCOC1) 557 nm; (in CC#N) 566 nm; (in CN(C)C=O) 565 nm; (in Cc1ccccc1) 554 nm; (in ClCCl) 561 nm; (in O) 558 nm.
`Cc1ccc2c(CC(=O)NN)coc2c1`: the emission maximum was determined as 400 nm (in C1CCOC1); 397 nm (in CC#N); 402 nm (in CC(C)=O); 398 nm (in CCCCO); 394 nm (in CCCO); 397 nm (in CCO). For the same compound, the emission maximum reads like this: (in CCOC(C)=O) 390 nm; (in CN(C)C=O) 412 nm; (in CO) 391 nm; (in ClCCl) 399 nm.
`CC1=C(C#Cc2ccc(N(c3ccccc3)c3ccccc3)cc2)C(C)=[N+]2C1=C(c1ccccc1)c1c(C)c(C#Cc3ccc(N(c4ccccc4)c4ccccc4)cc3)c(C)n1[B-]2(F)F` yielded an emission maximum (in C1CCOC1) of 659 nm.
Where the note is “in Cc1ccccc1”, `BrCCCCCCCCCCCCOc1cc2ccc3cccc4ccc(c1)c2c34` showed an emission maximum of 384 nm.
`O=S1(=O)c2ccccc2-c2cc(-c3c4ccccc4cc4ccccc34)ccc21`: the emission maximum is, setting by setting: (in C1CCCCC1) 403.35 nm; (in CC#N) 514.77 nm; (in ClCCl) 472.82 nm.
Regarding `c1ccc(-c2nc(-c3ccc(-c4ccc(N(c5ccccc5)c5ccccc5)cc4)cn3)oc2-c2ccccc2)cc1`, the emission maximum reads like this: (in C1CCOC1) 458 nm; (in C1COCCO1) 454 nm; (in CC#N) 507 nm; (in CC(C)=O) 495 nm; (in CC(C)OC(C)C) 434 nm; (in CCCCCC) 399 nm. Further, the emission maximum reads like this: (in CCCCOCCCC) 431 nm; (in CCN(CC)CC) 422 nm; (in CCOC(C)=O) 456 nm; (in CCOCC) 440 nm; (in Cc1ccccc1) 435 nm; (in c1ccccc1) 438 nm.
Compound `CCCCCc1ccc(C#Cc2cc(C#Cc3ccc(CCCCC)cc3)c3ccc4c(C(=O)c5ccccc5)cc(C#Cc5ccc(CCCCC)cc5)c5ccc2c3c54)cc1` came in with an emission maximum (in ClCCl) of 511 nm.
On the same count and under the same terms, the same measure for `Cc1cc(C)c(C2=C3C=C(/C=C/C(=O)OCc4ccccc4)C=[N+]3[B-](F)(F)n3cc(/C=C/C(=O)OCc4ccccc4)cc32)c(C)c1`: 604 nm.
Regarding `C1=C/C2=C(\c3ccccc3)c3c[nH]c(c3)/C(c3ccccc3)=C3/C=CC(=N3)/C(c3ccccc3)=c3/cc/c([nH]3)=C(\c3ccccc3)C1=N2`, the emission maximum (in CC(=O)N(C)C) came to 713 nm.
On to `O=C([O-])c1cc(N2C(=O)C=CC2=O)ccc1-c1c2cc(F)c(=O)cc-2oc2cc([O-])c(F)cc12`, for which, under “in O”, the emission maximum is on record as 520 nm.
In turn, `c1cc2c3c(c1)OCCCCCCCOc1cccc(c1-c1c4ccccc4c-3c3ccccc13)OCCCCCCCO2` showed an emission maximum (in C1CCCCC1) of 427 nm.
Under “in ClCCl”, `CCOC(=O)c1c(-c2cc3ccccc3oc2=O)nn(-c2ccc(Br)cc2)c1C(=O)OCC` returned an emission maximum of 400 nm.
